Results from patent publication US8603493B2, “Carbosilane dendrimers, preparation method thereof and use of same” (Dendrico, S.L., priority 2005, dated 2013).

Tests used:
[1] = test system: erythrocytes; test: Haemolysis test (haemoglobin release after 1 hour); type: cell-based; details: positive control, 0.2% Triton X-100
Method: A visual examination was carried out to detect the presence/absence of hemagglutination and quantification of haemoglobin release (haemolysis test) by spectrophotometry. ClNH4 was excluded from the dendrimers of previous Example 38, as the result had been more toxic for lymphocytes, and the results were compared with those produced for a PAMAN type generation 4 dendrimer.
The erythrocytes were obtained after being separated from the PBMC using the same Ficoll gradient cited in the previous Example. They were diluted in PBS to be able to view them individually. The cells were resuspended in 500 μl of PBS and were seeded in a 24-well plate (300,000/well). As positive control, cells treated with 0.2% Triton X-100 were used. Negative control: PBS (blank). The erythrocytes were incubated with different dendrimer concentrations. The presence of hemagglutination, number of cells and release of haemoglobin by hour were evaluated by collecting 100 μl of supernatant and measuring absorbencies by spectrophotometry using a plate reader at a wavelength of 550 nm and 690 nm as reference.
100% haemolysis in the control of Triton X-100 (the cells treated with Triton were all dead and broken). […] Each well is expressed as the percentage with respect to the O.D. (optical density) of Triton X-100, which is considered 100%; in addition to that percentage 7% of the control is subtracted. […]

[2] = test system: PBMC; test: Flow cytometry test (size and complexity; live cells vs apoptosis-necrosis); type: cell-based, human; details: 72 hours, same concentrations as Trypan Blue test
Method: The evaluation time on this occasion was 72 hours. The toxicity was evaluated on PBMC, produced in the manner described in Example 38. […] The ODN used was PPT, in the following way: • [ODN PPT] in the complex with the CBS: 2.57 (0.88 μM) • [ODN PPT] in the complex with SF: 0.34 μM • [ODN PPT] in the complex with G4: 1 μM […] The cells were either incubated with said complexes, a mixture of equal volume which contained ODN without CBS, a mixture which contained dendrimer alone, or with a mixture which contained only RPMI+complete medium which was used as negative control. The cells and/or the supernatant were then collected to be analysed by flow cytometry, confocal microscopy or cell DNA extraction. The percentages of cells with size and complexity corresponding to cells in apoptosis-necrosis were compared with the live cells. For this, the size (FW) and the complexity (SD) was evaluated by flow cytometry. To do this, a region was drawn around the cells with FW and SD corresponding to cells in apoptosis-necrosis and another around the cells with FW and SD corresponding to live cells. The percentages of cells present in each slide were compared. The graphics produced are shown in FIG. 15, wherein the X-axis represents the size (FW) and the Y-axis the complexity (SD). […] The cloud of dark cells corresponds to cells in apoptosis necrosis. The live cells are represented in grey.

[3] = test system: PBMC; test: Staining with Trypan Blue of PBMC treated with dendriplexes or dendrimers; details: 72 hours, (+/−)=2/1, IM8 3.93 μM, IM16 1.99 μM, ClNH4 3.98 μM, Phe 1.96 μM, NN 3.94 μM, SF 0.68 μM, G4 100 μM, PPT 0.88 μM (0.34 μM with SF, 1 μM with G4), n = 100 cells per count
[4] = test system: PBMC; test: Lymphoproliferative test (tritiated thymidine); type: cell-based, human; details: positive control, 1 μg/mL, 5 days, tested 12 times
Method: To evaluate the antigenic capacity of CBS dendrimers, a lymphoproliferative test was performed. The experiment was prepared in triplicate in a 96-well flat bottomed plate (100,000 cells per well in 200 μl of complete human AB medium with antibiotics, glutamine and 10% AB serum). […] After 5 days of incubation at 37° C. with 5% atmosphere of CO2 100 μl of supernatant was removed, then adding 100 μL of a medium with an isotopic intercalating agent of DNA, tritiated thymidine (prepared with 10% AB medium and Thymidine 1/100). The plate was then filtered using a Harvester passing its content through a filter, which was left to dry overnight (approx. 16 hours). After this period, a sheet of Methylex® containing scintillation medium was heat-melted, and it was read in a gamma camera to evaluate the number of counts (greater the counts, more proliferation). The results, which are shown below in Table 8, are expressed as tritiated thymidine counts per minute (cpm). Each result of each concentration was performed in triplicate, the value which appears in the table being the average of the 3. The PHA and the control were tested 12 times.

[5] = test system: ODN; test: Complex formation between CBS and ODN (agarose gel electrophoresis); type: binding; details: 3% agarose gel, RPMI, excess positive charge (+/−) 2/1 and higher
From the text: The oligonucleotidic sequences used were antisense sequences (complementary) directed against HIV RNA. The length varied from 15 to 28 bases, being of phosphorothioate nature. The specific ODN used and their sequences are shown below in Table 1.
Several of the ODN were used fluorescent at the 5′ end. This is indicated by adding the letter F to its notation. Thus, “GF” makes reference to the fluorescent anti-gag ODN at end 5′, whilst “RF” makes reference to the anti-Rev ODN fluorescent at end 5′.
Different agarose concentrations were used to show the migration of the ODN and the dendriplexes, bearing in mind the small size of the ODN used. Finally, a 3% agarose concentration in TAE 1× was chosen as the best. The migration of non-fluorescent ODNs was compared with fluorescent ones, both migrating at the same height but the latter increasing the signal perceived considerably. Using them, it thus avoided the isotopic labelling of the ODN. A double well was manufactured to prepare these gels, to permit load volumes of 60 μl, of which 50 μl was mixture volume of the samples in RPMI and 10 μl load buffer with glycerol. As size marker, a ladder of 100 base pairs was used (Gibco BRL®).
For the complex formations in all the tests performed, both on gels and on cells the ratio between the number of positive and negative charges in said complex was taken. As published by different authors in studies with PAMAM dendrimers, it is necessary that the complex formed has an excess positive charge to facilitate its binding to the cell membrane glycoproteins, negatively charged, thus starting the endocytosis process. Likewise, an excess of positive charge is added to ensure the formation of the dendrimer-DNA complex. Therefore, the complexes between the CBS dendrimers and the different nucleic acids were formed in excess number of positive charges (provided by the CBS) compared with negative charges (provided by the ODN). Nevertheless, different charge ratios were tested, making the calculations based in the number of dendrimer charges (fixed) and the number of negative charges of the ODN (also fixed). The 2/1 ratio of positive/negative charges was fixed as sufficient in all dendrimers to form the complexes with a total positive charge, although in some experiments a balance was provided of an equal number of negative charges as positive charges or excess negative charges.
In all the tests, a complex formation volume of 60 μl was used, using phenol red without RPMI serum as support medium.
Tests of complex formation were used with the dendrimers of the invention IM8, ClNH4, NN, Phe and IM16.
The synthesis process of the CBS used in this work begins from an initial nucleus of common structure, which is ended functionalizing in the periphery by the use of different functional groups, which are those which provide the positive charge to the dendrimer and determine the differences between themselves, the dendrimeric nucleus being of apolar nature. Since some of the bonds of the functional groups used to the dendrimeric nucleus could be unstable in aqueous solution, tests were performed to determine if the DNA retention in agarose gels and, therefore, the complex formation between the CBS and the DNA could be due to the total dendrimer structure being conserved or in contrast, the terminal functional groups came away from the moiety of the dendrimeric core which are responsible for the DNA retention. For this, gels were used in which complexes were formed between the ODNs and the integral CBS and those formed supposedly between the ODNs and the terminal functional groups with which the carbosilane skeleton had functionalized, in this case quaternized dimethylethanolamine. As has previously been commented, those positively charged molecules, which are bound to the dendrimer as terminal functional groups, are those which give the dendrimer its charge. As control, the mixtures of ODN-dendrimers, ODN-monomers and ODN alone were compared. […]

## Triton X-100
[1]
  haemolysis: 100%

## PPT: antisense phosphorothioate ODN against HIV mRNA, AATTTTCTTTTCGCCCCT (SEQ ID NO: 3), 18 bases [reference compound]
[2]
  Apoptosis-necrosis (%): 23%
  Live cells (%): 71%
[3]
  TB+ (%), cells stained with Trypan Blue: 11.9%

## phytohemagglutinin [PHA, reference compound]
[4]
  Measurement of the scintillation counter (tritiated thymidine counts): 10267 cpm

## quaternized dimethylethanolamine [monomers, reference compound]
[5]
  complex formation with ODN (retention of DNA migration in gel): not being capable
